Experiment: Phase 2 study of obicetrapib as adjunct to high-intensity statin therapy: safety and tolerability (adverse events)
Type: in vivo, human
Settings: for AEs, total: subjects, number (%): on top of high-intensity statin; for Subjects reporting treatment-emergent adverse events: safety population
Description: Patients were randomly assigned to receive one of the three treatments investigative treatments. All treatments were to be taken once daily with food for 8 weeks. Safety was assessed throughout the trial by monitoring adverse events and concomitant medication use, 12-lead electrocardiograms (ECGs), vital signs, laboratory safety assessments and physical examinations. Additional assessments included salivary cortisol, plasma aldosterone, high-sensitivity C-reactive protein (hsCRP) and endothelin 1.
Safety and tolerability profiles of obicetrapib assessed by clinical laboratory values and incidence of adverse events (AEs).
The primary outcome measure was LDL-C (percent change). Secondary outcome measures included ApoB, Non-HDL-C and HDL-C (percent change). The Intent-to-Treat (ITT) Population included all participants randomized into the study. The Modified ITT (mITT) Population included all participants in the ITT Population who receive at least 1 dose of any study drug and have a baseline value for the LDL-C assessment. The Safety Population included all participants who receive at least 1 dose of any study drug. The mITT Population was the primary population for the efficacy analyses. The primary efficacy analysis of the percent change in LDL-C was performed using a mixed model for repeated measures (MMRM) approach. In order to maintain the overall Type I error rate, the secondary efficacy endpoints were tested sequentially at the 0.05 significance level according to the pre-specified order of hierarchy. All safety endpoints were summarized descriptively. No statistical inference was applied to the safety endpoints. Plasma obicetrapib concentrations were summarized with descriptive statistics based on the […].

[1] = either obicetrapib treatment group (5 mg, 10 mg)

SMILES: CCOC(=O)N1c2ccc(C(F)(F)F)cc2[C@@H](N(Cc2cc(C(F)(F)F)cc(C(F)(F)F)c2)c2ncc(OCCCC(=O)O)cn2)C[C@H]1CC [Obicetrapib, (2R,4S)-4-{[3,5-bis(trifluoromethyl)benzyl]-[5-(3-carboxypropoxy)pyrimidin-2-yl]amino}-2-ethyl-6-trifluoromethyl-3,4-dihydro-2H-quinoline-1-carboxylic acid ethyl ester]
- Tolerability and safety profile (5 mg and 10 mg on top of high intensity statin therapy): well tolerated with a safety profile similar to placebo
- Subjects reporting events considered study drug related (5 mg group): 2 subjects
- AEs, related: number of events (5 mg group (N = 40)): 2 events
- AEs, related: subjects, number (%) (5 mg group (N = 40)): 2 (5.0)
- AEs, severe (5 mg group (N = 40)): 0
- AEs, total: number of events (5 mg group (N = 40)): 24 events
- Deaths (5 mg group (N = 40)): 0
- SAEs, related (5 mg group (N = 40)): 0
- SAEs, total (5 mg group (N = 40)): 0
- TEAEs leading to discontinuation of study drug (5 mg group (N = 40)): 0
- TESAEs leading to discontinuation of study (5 mg group (N = 40)): 0
- AEs, total: subjects, number (%) (5 mg group (N = 40)): 13 (32.5)
- Adverse events: Basal cell carcinoma (5 mg group (n = 40)): 0 (0.0) n (%)
- Adverse events: Fatigue (5 mg group (n = 40)): 2 (5.0) n (%)
- Adverse events: Gastrointestinal disorders (5 mg group (n = 40)): 3 (7.5) n (%)
- Adverse events: General disorders and administration site conditions (5 mg group (n = 40)): 3 (7.5) n (%)
- Adverse events: Hypertension (5 mg group (n = 40)): 2 (5.0) n (%)
- Adverse events: Infections and infestations (5 mg group (n = 40)): 1 (2.5) n (%)
- Adverse events: Injury, poisoning and procedural complications (5 mg group (n = 40)): 3 (7.5) n (%)
- Adverse events: Investigations (5 mg group (n = 40)): 2 (5.0) n (%)
- Adverse events: Metabolism and nutrition disorders (5 mg group (n = 40)): 2 (5.0) n (%)
- Adverse events: Muscle spasms (5 mg group (n = 40)): 0 (0.0) n (%)
- Adverse events: Musculoskeletal and connective tissue disorders (5 mg group (n = 40)): 4 (10.0) n (%)
- Adverse events: Nausea (5 mg group (n = 40)): 1 (2.5) n (%)
- Adverse events: Neoplasms benign, malignant and unspecified (including cysts and polyps) (5 mg group (n = 40)): 0 (0.0) n (%)
- Adverse events: Nervous system disorders (5 mg group (n = 40)): 2 (5.0) n (%)
- Adverse events: Respiratory, thoracic and mediastinal disorders (5 mg group (n = 40)): 2 (5.0) n (%)
- Adverse events: Type 2 diabetes mellitus (5 mg group (n = 40)): 2 (5.0) n (%)
- Adverse events: Vascular disorders (5 mg group (n = 40)): 2 (5.0) n (%)
- Subjects reporting treatment-emergent adverse events (5 mg group): 15 subjects
- Subjects reporting events considered study drug related (10 mg group): 1 subject
- AEs, related: number of events (10 mg group (N = 40)): 1 events
- AEs, related: subjects, number (%) (10 mg group (N = 40)): 1 (2.5)
- AEs, severe (10 mg group (N = 40)): 0
- AEs, total: number of events (10 mg group (N = 40)): 11 events
- Deaths (10 mg group (N = 40)): 0
- SAEs, related (10 mg group (N = 40)): 0
- SAEs, total (10 mg group (N = 40)): 0
- TEAEs leading to discontinuation of study drug (10 mg group (N = 40)): 0
- TESAEs leading to discontinuation of study (10 mg group (N = 40)): 0
- AEs, total: subjects, number (%) (10 mg group (N = 40)): 8 (20.0)
- Adverse events: Basal cell carcinoma (10 mg group (n = 40)): 0 (0.0) n (%)
- Adverse events: Fatigue (10 mg group (n = 40)): 1 (2.5) n (%)
- Adverse events: Gastrointestinal disorders (10 mg group (n = 40)): 0 (0.0) n (%)
- Adverse events: General disorders and administration site conditions (10 mg group (n = 40)): 2 (5.0) n (%)
- Adverse events: Hypertension (10 mg group (n = 40)): 0 (0.0) n (%)
- Adverse events: Infections and infestations (10 mg group (n = 40)): 0 (0.0) n (%)
- Adverse events: Injury, poisoning and procedural complications (10 mg group (n = 40)): 1 (2.5) n (%)
- Adverse events: Investigations (10 mg group (n = 40)): 0 (0.0) n (%)
- Adverse events: Metabolism and nutrition disorders (10 mg group (n = 40)): 0 (0.0) n (%)
- Adverse events: Muscle spasms (10 mg group (n = 40)): 0 (0.0) n (%)
- Adverse events: Musculoskeletal and connective tissue disorders (10 mg group (n = 40)): 4 (10.0) n (%)
- Adverse events: Nausea (10 mg group (n = 40)): 0 (0.0) n (%)
- Adverse events: Neoplasms benign, malignant and unspecified (including cysts and polyps) (10 mg group (n = 40)): 0 (0.0) n (%)
- Adverse events: Nervous system disorders (10 mg group (n = 40)): 2 (5.0) n (%)
- Adverse events: Respiratory, thoracic and mediastinal disorders (10 mg group (n = 40)): 0 (0.0) n (%)
- Adverse events: Type 2 diabetes mellitus (10 mg group (n = 40)): 0 (0.0) n (%)
- Adverse events: Vascular disorders (10 mg group (n = 40)): 0 (0.0) n (%)
- Subjects reporting treatment-emergent adverse events (10 mg group): 8 subjects
- Laboratory parameters (chemistry, hematology, urinalysis) compared with placebo [1]: no clinically meaningful shifts in chemistry, hematology or urinalysis parameters
- Vital signs compared with placebo [1]: no changes in vital signs
